# ChEMBL document CHEMBL3507680, “University of Dundee, Gates Library screen for HepG2 cell viability”
# Assay: Human HepG2 cell viability assay in 384 well format
# Type: toxicity, cell-based
# Set-up: dose 125 nL, time 70.5 hour; concentration not given beside the values
# Conditions: HepG2 cells, read-out: Inhibition
row,SMILES,cytotoxicity at 70.5 h [%]
1,O=C1CCN(CCCS(=O)(=O)c2ccc(Cl)cc2)CCN1,-4.67
2,COc1ccccc1CN(CC1CCCO1)C(=O)c1cc(C)n[nH]1 (centres undefined),-14.4
3,CC1CN(C)CCN1C(=O)Nc1nc(-c2ccc[nH]2)cs1 (centres undefined),-14.7
4,OC(CN1CCN(CCOCC(F)(F)F)CC1)c1ccccc1 (centres undefined),24.5
5,O=C(NCCc1nncn1C1CC1)c1cnn(Cc2ccccc2)c1,-11.1
6,CC(C)c1ocnc1C(=O)N1CC(=O)Nc2cccnc21,-1.78
7,COCCN1CCC(Nc2ccc(C#N)cc2F)CC1,-13.7
8,O=C1CCN(C(=O)c2ncoc2-c2ccco2)c2ncccc2N1,-9.5
9,CC(C)c1ocnc1C(=O)N1CCC(=O)Nc2cccnc21,-13.9
10,CC(C)(C)c1ccc(S(=O)(=O)CCN2CCNC(=O)CC2)cc1,-10.4
11,COC(C)C(=O)NS(=O)(=O)c1ccc(F)c(C(F)(F)F)c1 (centres undefined),-12.6
12,CC(=O)NS(=O)(=O)c1ccc(F)c(C(F)(F)F)c1,-6.35
13,COc1cccc(NC(=O)NC2(c3noc(CN(C)C)n3)CCCC2)c1,-10.2
14,CN(C)Cc1nc(C2(NC(=O)Nc3cccc(F)c3)CCCC2)no1,-2.26
15,CN(C)Cc1nc(C2(NC(=O)Nc3ccccc3)CCCC2)no1,-12.8
16,Cc1cccc(C(=O)N2CCN(CCC(C)C)CC2)n1,-11.4
17,CCN(Cc1ccoc1)C(=O)NC1CCN(C(=O)OC(C)(C)C)C1 (centres undefined),-2.35
18,Cc1cccc(CN(Cc2ccccn2)S(=O)(=O)N(C)C(C)C)c1,-14
19,COc1cccc(CNc2cccnc2-n2cccn2)c1OC,-14.7
20,Cc1ccc(C)c(CN2CCOC(c3noc(C)n3)C2)c1 (centres undefined),-4.49
21,CCN(Cc1ccoc1)C(=O)C1CN(C(=O)OC(C)(C)C)C1,-13.5
22,COc1ccccc1CN(CC1CCCO1)C(=O)c1ccc(F)cn1 (centres undefined),-9.98
23,CC(CNC1CCN(Cc2ccncc2)CC1)c1ccc(F)cc1F (centres undefined),-11

row,SMILES,cytotoxicity at 70.5 h [%]
1,COc1cccc(COc2nc(C(C)C)no2)c1,15.2
2,NS(=O)(=O)c1ccc(CNCC(=O)NCc2ccc(Cl)cc2Cl)cc1,-8.64
3,O=S(=O)(NCc1ccc(S(=O)(=O)N2CCCC2)s1)c1cc(Cl)cc(Cl)c1,-21.3
4,CN(CCN1CCOC1=O)CC(=O)Nc1cc(F)cc(F)c1,-19.7
5,O=C(NCCCc1nc(=O)[nH][nH]1)Nc1cccc(F)c1,-1.96
6,O=C(NCCCc1nc(=O)[nH][nH]1)Nc1ccc(Cl)cc1,-13.5
7,CCn1c(CN(C)Cc2csc(C)n2)nc2cc(F)ccc21,-20.1
8,CC(C)C(CNCc1cccc2c1OCO2)N1CCOCC1 (centres undefined),3.33
9,Cc1csc(CCCNc2ccc(S(N)(=O)=O)cc2C#N)n1,-22.6
10,CCC(C(=O)Nc1ccc2nc(C)oc2c1)N1CCCC1=O (centres undefined),20.5
11,Cc1ccc(SC2CCCC2)c(C(=O)NCCc2n[nH]c(=O)[nH]2)c1,2.84
12,Cc1nn(C)c(Cl)c1CN1CCN(c2nccs2)C(C)C1 (centres undefined),2.61
13,O=S(=O)(Cc1c(F)cccc1F)NCCOc1cccnc1,17.9
14,COc1ccc(C)cc1CN(C)CCCNS(C)(=O)=O,7.17
15,Cn1c(CCN2CCN(CCc3ccccc3)CC2)nc2ccccc21,-6.23
16,CN(CCCNc1cc(N2CCCC2CO)ncn1)S(C)(=O)=O (centres undefined),11.1
17,Cc1ccc(NC(C)C(=O)NCc2cccs2)cc1C (centres undefined),18
18,CS(=O)(=O)Cc1cccc(C(=O)NCC2Cc3ccccc3O2)c1 (centres undefined),-3.94
19,O=C(Nc1nccs1)N1CCCC(N2CCNC2=O)C1 (centres undefined),1.93
20,CC(C)(C)NC(=O)C1CSCN1S(=O)(=O)c1cccc(F)c1 (centres undefined),-9.43
21,CC(NC(=O)CCCOc1ccccc1Cl)c1ccncc1 (centres undefined),13.5
22,CN(C)C(=O)C1CCCN1CCCNC(=O)c1ccccc1F (centres undefined),-1.14
23,COc1ccccc1CC(=O)NCCCN1CCCC1C(=O)N(C)C (centres undefined),2.29

row,SMILES,cytotoxicity at 70.5 h [%]
1,Cc1nc(C)n(CC2CCCN(CCc3ccncc3)C2)n1 (centres undefined),-2.11
2,Cc1csc(N2CCN(Cc3ccccn3)CC2C)n1 (centres undefined),-5.63
3,Cc1cc(C)n(CC2CCCN2C(=O)c2ccc3c(c2)nnn3C)n1 (centres undefined),1.66
4,COc1ccc(NC(C)C(=O)NCCc2cccs2)cc1F (centres undefined),9.05
5,CSCC(CCO)NC(=O)Nc1cccc(Br)c1 (centres undefined),-0.357
6,Cc1cc(C)n(CC2CCCN2C(=O)c2ccc3[nH]nnc3c2)n1 (centres undefined),0.633
7,CSCC(CCO)NC(=O)Nc1cc(Br)ccc1C (centres undefined),-3.57
8,CC(C1CC1)N(C(=O)NCCCn1nc2ccccn2c1=O)C1CC1 (centres undefined),2.18
9,Cc1n[nH]c(C)c1C1CCCN1C(=O)NCC(=O)NC(C)(C)C (centres undefined),-2.7
10,CC(C)S(=O)(=O)NCC1CCCN(C(=O)c2ccc3c(c2)CCC3)C1 (centres undefined),1.31
11,CC(C)S(=O)(=O)NCC1CCCN(C(=O)c2ccc3c(c2)OCCO3)C1 (centres undefined),-1.13
12,Cc1nsc(N2CCCN(c3nc(C4CC4)ns3)CC2)n1,1.36
13,Cc1nc2ccccn2c1CN(Cc1cccnc1)CC1CCCO1 (centres undefined),0.351
14,O=C(CN(Cc1cccnc1)CC1CCCO1)Nc1ccc(F)cc1 (centres undefined),2.4
15,Cc1n[nH]c(C)c1C1CCCN1C(=O)CNC(=O)C(C)(C)C (centres undefined),-0.174
16,Cc1nc(C)n(CC2CCCN2CCCc2ccccc2)n1 (centres undefined),-6.68
17,CC(C)n1cc(CN2CCCN(C(=O)c3nccnc3N)CC2)cn1,7.08
18,Cn1ccc(NC(=O)Cc2cccc(F)c2)n1,14.1
19,NC(=O)c1ccc(CN2CCCC(O)C2)cc1 (centres undefined),-3.47
20,NC(=O)c1ccc(CN2CCCC(N3CCCC3)C2)cc1 (centres undefined),-7.14
21,Cc1nn(CC(=O)N2CCCC2Cn2cccn2)c(C)c1Cl (centres undefined),9.12
22,Cc1c(NC(=O)NCC(C)N2CCOCC2)cccc1OC(F)F (centres undefined),-0.748
23,O=C(CC1CN(Cc2ccccc2)CCO1)NC1CCCC1 (centres undefined),11.6

row,SMILES,cytotoxicity at 70.5 h [%]
1,Cc1cc(C)n(C2CCCN(C(=O)c3cccc4[nH]ncc34)C2)n1 (centres undefined),-4.99
2,Cc1nc(C)n(C2CCCN(C(=O)CCc3ccncc3)C2)n1 (centres undefined),-0.318
3,Cc1nc(C)n(C2CCCN(C(=O)CCCn3ccnc3)C2)n1 (centres undefined),4.28
4,O=C(NCCOc1ncc(Cl)cc1Cl)c1ccncc1F,0.0766
5,CC(Oc1ccccc1C(F)(F)F)C(=O)NCCC(=O)N(C)C (centres undefined),0.999
6,COc1c(C2CCCN2C(=O)c2ccc(Cl)o2)c(C)nn1C (centres undefined),-5.88
7,CNc1cc(N2CCCC2CNCc2ccc(Cl)o2)ncn1 (centres undefined),8.16
8,CCOC1CCC2(CCN(C(=O)c3csnn3)CC2)c2ccccc21 (centres undefined),36.5
9,COc1ncccc1CN1C[C@@H]2CN(c3ncccn3)C[C@@H]2C1,18.1
10,CN1CC[C@]2(CN(CC3CC3)C[C@H]2c2ccccc2)C1=O,23.4
11,COc1cc(N2CCC3(CC2)CN(C)C(=O)CO3)ncn1,16.1
12,CC(=O)N1CCC(c2nc3ccc(C)cn3n2)CC1,-0.807
13,O=C(c1ccc[nH]1)N1CCc2nnc(Cn3cccc3)n2CC1,-7.68
14,O=C(c1ccc[nH]1)N1CCc2nnc(Cn3cccn3)n2CC1,-2.61
15,COc1cc(N2CCC3(CC2)CNC(=O)CO3)ncn1,-8.43
16,COC[C@@H]1CCC[C@]12CN(S(=O)(=O)c1cn(C)cn1)CCO2,-6.65
17,O=C(Nc1ccccc1)N1C[C@H]2C[C@H](C(=O)N3CCOCC3)[C@@H](C1)O2,-6.84
18,CCOC[C@@H]1CCC[C@]12CN(S(=O)(=O)c1cn(C)cn1)CCO2,-5.13
19,CS(=O)(=O)N1CCC(c2nc3ccc(-c4cccc(F)c4)cn3n2)CC1,-5.73
20,CN(C)C(=O)N1CC(C(=O)NCC2CC2)C2(CCOCC2)C1 (centres undefined),3.79
21,CO[C@@H]1CO[C@@]2(CCCN(S(=O)(=O)c3ccccc3)C2)C1,-14.8
22,Cc1cccc(C(=O)N2Cc3ccccc3C3(CCN(C)CC3)C2)n1,7.65
23,CN1CCCC2(CCN(C(=O)c3ccncc3)C2)C1 (centres undefined),7.77

row,SMILES,cytotoxicity at 70.5 h [%]
1,CC(C)n1ccc(-c2cc(C(=O)N3CCCC3)c3ccccn23)n1,39.5
2,CN1CCN(Cc2cn3c(n2)CN(Cc2cccnc2)CC3)CC1,19.4
3,O=C(NCc1cncc2c1CCN(C1CCOC1)C2)c1ccco1 (centres undefined),-2.1
4,Cc1cccc(N2CCOCC3(C2)CN(c2cnn(C)c2)C(=O)CO3)n1 (centres undefined),16.9
5,Cc1cccc(N2CCOCC3(C2)CN(c2ccoc2)C(=O)CO3)n1 (centres undefined),6.55
6,O=C([C@H]1CCCO1)N1CCCC2(COCCN(c3ccccc3)C2)C1 (some centres undefined),-10.4
7,O=C1NCC[C@]12CN(CC1CCOCC1)C[C@H]2c1ccccc1,-7.01
8,CCN(CC)Cc1cc(=O)n2c(n1)CN(S(=O)(=O)C1CC1)CCC2,-7.27
9,c1coc(CN2CCO[C@H]3[C@H](OCC4CC4)CC[C@@H]32)c1,-10.8
10,COCC1c2c(cnn2C)CCN1C(=O)c1cc(C)on1 (centres undefined),-0.669
11,Cc1ccc(N2CC[C@@H]3[C@@H]2CCN3C(=O)Cc2ccccc2)nn1,5.36
12,CCCC(=O)Nc1ccc2c(c1)C1(CCOCC1)CN2CCOC,18.8
13,COCC(=O)N1CCC2(CC1)CC(COC)N(Cc1ccccn1)C2 (centres undefined),-4.33
14,CN1CCOCC2(CCCN(C(=O)c3cnccn3)C2)C1 (centres undefined),0.574
15,c1cnc(N2CCC3(COCc4cnc(-c5cccnc5)nc43)C2)nc1 (centres undefined),19.5
16,COCC(=O)NC1CC2(CCN(Cc3ccco3)CC2)c2ccccc21 (centres undefined),-12.8
17,NC(=O)N1CC[C@H](O)[C@@H]1Cc1cccnc1,-12.6
18,CCC(=O)N1CC[C@H]2[C@H](C[C@@H](Cn3cccn3)N2c2nccs2)C1,8.28
19,Cn1ccc(CN2CCCC23CCN(Cc2ccccc2F)CC3)n1,-4.06
20,Cc1ccc(N2CC[C@@H]3[C@@H]2CCN3Cc2ccsc2)nn1,-0.146
21,CC(C)N1CCC2(CCN(C(=O)c3cccnc3)CC2)C1,-16.3
22,FC1(F)CCN(Cc2ccccn2)CC12CCN(c1cccnc1)C2 (centres undefined),21.6
